# In patent publication US5072032A, “Preparation and use of thiophosphonates and thio-analogues of phosphonoformic acid” (priority 1989, dated 1991):
# Like-named read-outs stand apart in the source and are kept apart here.
# How the values were obtained:
# human DNA polymerase γ = target: T1, human DNA polymerase γ (Homo sapiens, UniProt P54098); experiment: Human DNA polymerase inhibition, gamma; format: biochemical; settings: for remaining activity at 100 µM: read-out: % Control at 100 μM ± S.D.
# T1 construct: Mammalian DNA polymerases alpha, beta, gamma, and delta were partially purified from K562 celles; endogenous in cells; host or cells: K562 (chronic myelogenous leukemia tissue culture line)
# T1 sequence (P54098 26-1239 limits assumed): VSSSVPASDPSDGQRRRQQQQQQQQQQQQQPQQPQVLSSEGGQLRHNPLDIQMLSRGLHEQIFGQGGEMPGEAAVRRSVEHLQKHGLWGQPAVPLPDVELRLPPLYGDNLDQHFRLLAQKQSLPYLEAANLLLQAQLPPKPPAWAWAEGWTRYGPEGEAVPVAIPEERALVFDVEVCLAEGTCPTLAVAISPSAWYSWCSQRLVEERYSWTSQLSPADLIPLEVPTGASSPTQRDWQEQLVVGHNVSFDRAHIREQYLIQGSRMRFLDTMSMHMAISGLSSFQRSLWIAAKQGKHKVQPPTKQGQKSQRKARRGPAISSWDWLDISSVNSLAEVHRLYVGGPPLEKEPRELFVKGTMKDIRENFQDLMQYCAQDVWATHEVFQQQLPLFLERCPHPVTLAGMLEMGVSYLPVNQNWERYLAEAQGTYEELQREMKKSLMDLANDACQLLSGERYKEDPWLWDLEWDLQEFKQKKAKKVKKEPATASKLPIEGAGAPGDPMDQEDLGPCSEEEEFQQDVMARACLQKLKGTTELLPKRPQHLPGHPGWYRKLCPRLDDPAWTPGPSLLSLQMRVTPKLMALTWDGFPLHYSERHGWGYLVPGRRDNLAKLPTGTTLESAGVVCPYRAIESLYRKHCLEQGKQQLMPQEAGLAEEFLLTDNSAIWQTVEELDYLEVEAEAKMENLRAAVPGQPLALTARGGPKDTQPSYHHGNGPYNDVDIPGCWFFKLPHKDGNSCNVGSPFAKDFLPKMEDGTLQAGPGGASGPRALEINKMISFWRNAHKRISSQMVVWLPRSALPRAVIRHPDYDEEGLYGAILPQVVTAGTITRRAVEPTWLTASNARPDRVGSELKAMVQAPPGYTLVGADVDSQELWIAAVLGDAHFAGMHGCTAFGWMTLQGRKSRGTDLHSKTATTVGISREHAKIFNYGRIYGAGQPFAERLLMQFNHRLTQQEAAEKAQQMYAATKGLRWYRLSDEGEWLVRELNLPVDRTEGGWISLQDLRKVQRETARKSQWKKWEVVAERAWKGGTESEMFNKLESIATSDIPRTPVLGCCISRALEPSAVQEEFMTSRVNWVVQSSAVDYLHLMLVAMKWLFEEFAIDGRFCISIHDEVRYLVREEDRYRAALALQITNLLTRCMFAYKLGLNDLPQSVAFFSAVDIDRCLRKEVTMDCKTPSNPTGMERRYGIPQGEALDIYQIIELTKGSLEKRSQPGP
# T1 sequence (Q9UHN1 25-485 partner limits assumed): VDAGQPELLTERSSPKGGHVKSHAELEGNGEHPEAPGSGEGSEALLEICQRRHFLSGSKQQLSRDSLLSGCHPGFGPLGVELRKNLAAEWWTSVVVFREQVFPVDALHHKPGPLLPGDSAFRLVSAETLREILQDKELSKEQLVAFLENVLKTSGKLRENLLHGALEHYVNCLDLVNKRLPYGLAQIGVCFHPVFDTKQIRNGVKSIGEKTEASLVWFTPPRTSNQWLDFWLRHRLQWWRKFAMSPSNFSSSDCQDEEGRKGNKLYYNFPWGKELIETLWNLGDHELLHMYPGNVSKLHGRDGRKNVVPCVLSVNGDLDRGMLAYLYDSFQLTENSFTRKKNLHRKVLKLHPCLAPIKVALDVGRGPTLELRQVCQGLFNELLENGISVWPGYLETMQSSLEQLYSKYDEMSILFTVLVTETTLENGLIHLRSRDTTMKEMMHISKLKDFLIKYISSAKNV
# Text: (§1) Viral DNA polymerases (HSV-1, HSV-2, EBV) were purified by previously published methods (Derce, D. K. F. Bastow, and Y. C. Cheng (1982) J. Boil. Chem. 257:10251-10260; Ostrander, M., and Y. C. Cheng (1980) Biochim. Biophys. Acta 609:232-245; Tan, R. S., A. Datta. and Y. C. Cheng (1982) J. Virol. 44:893-899). These procedures generally included sequential chromatography on DEAE-cellulose. HIV reverse transcriptase was purified by antibody affinity column chromatography as descrbed (Starnes. M. C. and Y. C. Cheng (1989) J. Biol. Chem. 264:7073-7077). The purified enzymes were dialyzed against and stored in 50 mM Tris-HCl (pH 7.5) containing 1 mM each of DTT, EDTA and PMSF plus 30% glycerol. Mammalian DNA polymerases alpha, beta, gamma, and delta were partially purified from K562 celles (chronic myelogenous leukemia tissue culture line). Briefly, washed cell pellets were extracted and passed throgh DEAE-cellulose in the presence of 300 mM KPO4 (pH 7.5) as previously described (Starnes, M. C., and Y. C. Cheng (1987) J. Biol. Chem 282:988-981) to remove DNA. The column flow-through fractions were dialyzed against buffer which contained 50 mM Tris-HCl (pH 7.5), and fractionated on a single-stranded DNA-cellulose column with a 0-1M KCl gradient.
# (§2) In accordance with the teaching of the present invention similar enzyme inhibition assays were also conducted with respect to mammalian enzymes, more particularly, human DNA polymerase.
# HSV-2 DNA polymerase = target: T2, HSV-2 DNA polymerase (Human herpesvirus 2, UniProt P89453); experiment: Viral polymerase inhibition, HSV-2; format: biochemical
# T2 construct: made in house
# Text: as §1
# Standard assays were run at 37° C. and contained: 50 mM Tris, pH b 8.0, 0.5 mM DTT, 8 mM MgCl2, 100 μg/mL BSA, 150 μg/mL gapped calf thymus DNA, 100 μM each dATP, dCTP, dGTP, 10 .parallel.M [^3 H]-dTTP, and 1-5 .parallel.L enzyme in a final volume of 50 .parallel.L. Modified assays for pH dependence inhibition studies with PFA (1) and α--oxo phosphonates (4 and 5) contained 50 mM Hepes, pH 8.2-6.5, 8 mM MgCl2, 100 mM KCl, 100 μg/ml BSA, 0.5 A260 units/ml of poly(rA).(dT)10, 100 μM [^3 H]dTTP, and 1.5 .parallel.L enzyme in a final volume of 50 μL. Samples were processed as described above.
# human DNA polymerase α = target: T3, human DNA polymerase α (Homo sapiens, UniProt P09884); experiment: Human DNA polymerase inhibition, alpha; format: biochemical; settings: for remaining activity at 100 µM: read-out: % Control at 100 μM ± S.D.
# T3 construct: Mammalian DNA polymerases alpha, beta, gamma, and delta were partially purified from K562 celles; endogenous in cells; host or cells: K562 (chronic myelogenous leukemia tissue culture line)
# Text: as §1, §2
# human DNA polymerase δ = experiment: Human DNA polymerase inhibition, delta; format: biochemical; settings: Pol δ, "activated" DNA; for IC50: read-out: ID50 (the source's name)
# Text: as §1, §2
# HV-6 polymerase = HV-6 polymerase (Human herpesvirus 6A, UniProt P28857); experiment: Viral polymerase inhibition, HV-6; format: biochemical, Herpes Virus 6
# T2 sequence (P89453 whole entry): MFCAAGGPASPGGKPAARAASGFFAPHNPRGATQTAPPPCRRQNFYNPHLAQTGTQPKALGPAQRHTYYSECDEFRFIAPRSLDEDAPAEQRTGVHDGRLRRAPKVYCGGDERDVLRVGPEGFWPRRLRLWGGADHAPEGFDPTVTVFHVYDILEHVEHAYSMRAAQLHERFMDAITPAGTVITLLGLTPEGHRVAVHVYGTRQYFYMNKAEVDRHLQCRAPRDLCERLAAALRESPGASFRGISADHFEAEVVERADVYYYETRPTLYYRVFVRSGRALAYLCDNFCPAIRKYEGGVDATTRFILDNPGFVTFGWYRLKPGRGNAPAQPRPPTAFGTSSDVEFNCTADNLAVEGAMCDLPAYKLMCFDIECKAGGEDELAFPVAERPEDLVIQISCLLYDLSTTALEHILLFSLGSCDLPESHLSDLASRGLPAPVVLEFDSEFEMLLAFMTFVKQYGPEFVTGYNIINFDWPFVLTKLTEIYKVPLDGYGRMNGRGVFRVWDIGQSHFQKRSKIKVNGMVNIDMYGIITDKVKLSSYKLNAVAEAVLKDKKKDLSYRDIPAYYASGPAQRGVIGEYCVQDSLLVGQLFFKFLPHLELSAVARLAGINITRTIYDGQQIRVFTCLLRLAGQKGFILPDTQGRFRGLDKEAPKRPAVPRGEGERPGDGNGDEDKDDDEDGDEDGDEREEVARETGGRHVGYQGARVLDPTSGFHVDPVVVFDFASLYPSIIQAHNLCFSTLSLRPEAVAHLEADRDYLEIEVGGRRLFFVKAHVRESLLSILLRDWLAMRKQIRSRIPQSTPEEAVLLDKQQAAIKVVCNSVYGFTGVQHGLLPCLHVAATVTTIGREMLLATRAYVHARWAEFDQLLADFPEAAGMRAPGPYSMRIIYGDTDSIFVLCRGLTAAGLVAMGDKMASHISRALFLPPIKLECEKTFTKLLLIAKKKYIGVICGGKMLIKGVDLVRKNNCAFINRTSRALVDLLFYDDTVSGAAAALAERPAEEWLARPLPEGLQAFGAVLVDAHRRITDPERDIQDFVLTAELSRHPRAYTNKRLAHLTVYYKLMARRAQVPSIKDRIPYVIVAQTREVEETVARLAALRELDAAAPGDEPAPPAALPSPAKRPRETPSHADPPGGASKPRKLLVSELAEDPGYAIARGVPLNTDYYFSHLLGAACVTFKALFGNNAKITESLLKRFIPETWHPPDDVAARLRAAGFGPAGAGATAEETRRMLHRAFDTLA
# T3 sequence (P09884 whole entry): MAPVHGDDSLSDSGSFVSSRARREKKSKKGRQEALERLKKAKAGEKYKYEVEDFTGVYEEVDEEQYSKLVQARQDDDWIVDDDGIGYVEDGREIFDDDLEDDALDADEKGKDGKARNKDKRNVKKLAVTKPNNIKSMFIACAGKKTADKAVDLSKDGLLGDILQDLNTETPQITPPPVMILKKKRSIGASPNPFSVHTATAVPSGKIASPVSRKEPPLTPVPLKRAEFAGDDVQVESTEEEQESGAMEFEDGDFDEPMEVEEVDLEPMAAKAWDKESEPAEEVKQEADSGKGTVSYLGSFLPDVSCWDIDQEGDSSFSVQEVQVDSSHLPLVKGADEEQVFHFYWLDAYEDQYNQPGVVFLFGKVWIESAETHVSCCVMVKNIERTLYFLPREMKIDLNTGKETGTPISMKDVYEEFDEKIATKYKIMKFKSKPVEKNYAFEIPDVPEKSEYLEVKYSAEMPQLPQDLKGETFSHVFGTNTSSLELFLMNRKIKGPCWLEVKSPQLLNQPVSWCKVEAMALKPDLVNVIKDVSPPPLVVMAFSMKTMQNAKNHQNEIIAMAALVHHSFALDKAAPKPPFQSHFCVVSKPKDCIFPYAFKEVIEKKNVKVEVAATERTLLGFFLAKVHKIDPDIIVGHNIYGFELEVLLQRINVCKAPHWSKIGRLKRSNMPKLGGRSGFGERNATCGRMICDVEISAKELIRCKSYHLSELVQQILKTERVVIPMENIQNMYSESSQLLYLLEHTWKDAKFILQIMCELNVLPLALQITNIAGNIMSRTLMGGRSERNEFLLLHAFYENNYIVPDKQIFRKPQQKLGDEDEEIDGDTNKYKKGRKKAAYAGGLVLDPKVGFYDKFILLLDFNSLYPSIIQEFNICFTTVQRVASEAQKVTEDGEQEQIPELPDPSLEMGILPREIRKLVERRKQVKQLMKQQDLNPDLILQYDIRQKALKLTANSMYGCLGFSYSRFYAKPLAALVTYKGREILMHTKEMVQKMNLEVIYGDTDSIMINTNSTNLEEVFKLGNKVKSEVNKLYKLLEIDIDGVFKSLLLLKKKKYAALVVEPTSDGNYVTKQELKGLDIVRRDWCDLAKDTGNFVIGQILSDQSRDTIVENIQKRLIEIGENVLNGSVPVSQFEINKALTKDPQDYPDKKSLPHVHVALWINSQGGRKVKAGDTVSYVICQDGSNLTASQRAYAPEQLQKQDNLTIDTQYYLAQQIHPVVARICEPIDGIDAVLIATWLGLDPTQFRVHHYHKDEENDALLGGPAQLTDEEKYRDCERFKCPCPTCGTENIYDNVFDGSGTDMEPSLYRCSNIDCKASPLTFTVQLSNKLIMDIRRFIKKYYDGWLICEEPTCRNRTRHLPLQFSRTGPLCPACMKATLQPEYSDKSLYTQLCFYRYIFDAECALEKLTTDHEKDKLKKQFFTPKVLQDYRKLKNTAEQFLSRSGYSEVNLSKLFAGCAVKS
# T3 sequence (Q14181 whole entry partner): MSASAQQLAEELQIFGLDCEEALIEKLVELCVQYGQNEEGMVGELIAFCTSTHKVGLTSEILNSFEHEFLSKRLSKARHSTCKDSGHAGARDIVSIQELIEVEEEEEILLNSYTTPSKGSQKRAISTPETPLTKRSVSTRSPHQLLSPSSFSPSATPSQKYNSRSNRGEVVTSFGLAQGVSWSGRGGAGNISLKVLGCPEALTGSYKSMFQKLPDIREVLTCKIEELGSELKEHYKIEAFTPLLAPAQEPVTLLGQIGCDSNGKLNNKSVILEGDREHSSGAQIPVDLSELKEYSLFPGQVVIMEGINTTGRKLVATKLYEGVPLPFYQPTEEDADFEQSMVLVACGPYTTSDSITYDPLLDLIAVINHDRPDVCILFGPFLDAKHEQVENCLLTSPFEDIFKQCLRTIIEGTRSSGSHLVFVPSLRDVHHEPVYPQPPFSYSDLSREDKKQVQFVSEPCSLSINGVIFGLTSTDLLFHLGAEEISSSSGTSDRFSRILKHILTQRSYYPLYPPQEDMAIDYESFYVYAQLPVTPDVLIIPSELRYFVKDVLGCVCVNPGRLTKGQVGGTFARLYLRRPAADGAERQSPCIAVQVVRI
# T3 sequence (P49642 whole entry partner): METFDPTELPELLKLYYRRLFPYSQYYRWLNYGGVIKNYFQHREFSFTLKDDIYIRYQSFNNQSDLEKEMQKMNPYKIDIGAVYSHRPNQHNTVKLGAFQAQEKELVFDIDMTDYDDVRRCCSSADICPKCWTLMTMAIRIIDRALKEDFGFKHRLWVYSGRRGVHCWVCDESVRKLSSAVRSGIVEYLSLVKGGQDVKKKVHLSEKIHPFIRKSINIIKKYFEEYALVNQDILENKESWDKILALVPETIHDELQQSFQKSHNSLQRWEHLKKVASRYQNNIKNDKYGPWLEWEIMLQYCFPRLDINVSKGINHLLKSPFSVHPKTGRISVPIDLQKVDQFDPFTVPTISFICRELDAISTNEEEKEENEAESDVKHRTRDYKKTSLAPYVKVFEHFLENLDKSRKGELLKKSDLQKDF
# T3 sequence (P49643 whole entry partner): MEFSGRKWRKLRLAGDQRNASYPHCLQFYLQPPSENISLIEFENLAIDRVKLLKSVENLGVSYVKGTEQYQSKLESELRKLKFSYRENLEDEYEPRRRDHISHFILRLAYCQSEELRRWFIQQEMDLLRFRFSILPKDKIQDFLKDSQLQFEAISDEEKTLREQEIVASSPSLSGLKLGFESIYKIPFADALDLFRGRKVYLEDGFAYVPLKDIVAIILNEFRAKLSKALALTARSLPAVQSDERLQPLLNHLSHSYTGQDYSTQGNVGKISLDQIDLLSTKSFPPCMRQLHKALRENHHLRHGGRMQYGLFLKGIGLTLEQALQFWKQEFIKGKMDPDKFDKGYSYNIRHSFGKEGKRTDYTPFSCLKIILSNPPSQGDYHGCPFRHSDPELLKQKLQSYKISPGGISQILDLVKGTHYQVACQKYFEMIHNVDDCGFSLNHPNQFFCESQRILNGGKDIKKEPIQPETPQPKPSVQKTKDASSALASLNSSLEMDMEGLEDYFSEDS
Compound,"remaining activity at 100 µM (human DNA polymerase γ; Pol γ, 100 μM, ""activated"" DNA) [%]","IC50 (human DNA polymerase γ; Pol γ, ""activated"" DNA, read-out: ID50 (the source's name)) [µM]","IC50 (HSV-2 DNA polymerase; HSV-2, ""activated"" DNA, read-out: ID50 (the source's name)) [µM]","remaining activity at 100 µM (human DNA polymerase α; Pol α, 100 μM, ""activated"" DNA) [%]","IC50 (human DNA polymerase α; Pol α, ""activated"" DNA, read-out: ID50 (the source's name)) [µM]",% Control at 100 μM ± S.D. (human DNA polymerase δ) [%],IC50 (human DNA polymerase δ) [µM],"IC50 (HV-6 polymerase; HV-6, ""activated"" DNA, read-out: ID50 (the source's name)) [µM]",IC50 (human DNA polymerase γ) [µM],remaining activity at 100 µM (human DNA polymerase γ) [%],IC50 (HSV-2 DNA polymerase) [µM],"effectiveness of TPFA relative to PFA (HSV-2 DNA polymerase; HSV-2 enzyme, ratio of ID50 values of Table I)",IC50 (human DNA polymerase α) [µM],"toxicity to the human enzyme relative to PFA (therapeutic index) (human DNA polymerase α; HIV enzyme and human enzyme, Tables I and II)",fold less active against the human enzyme than against the HIV enzyme (therapeutic index) (human DNA polymerase α; human DNA polymerase vs HIV enzyme of Table I),remaining activity at 100 µM (human DNA polymerase α) [%],IC50 (HV-6 polymerase) [µM],"effectiveness of TPFA relative to PFA (HV-6 polymerase; Herpes Virus 6 enzyme, ratio of ID50 values of Table I)"
"O=C(O)P(=O)(O)O [PFA, phosphonoformic acid]",55 ± 5,> 100,0.7,16 ± 2,31,36 ± 3,71,1,,,,,,,,,,
"O=C(O)P(O)(O)=S [TPFA, thiophosphonoformic acid]",,,,,,69 ± 6,> 100,,> 100,75 ± 3,11.3,fifteen to twenty times less effective,> 100,"at a minimum, three times less toxic",greater than 100 fold,72 ± 3,70,more than seventy times less effective
